Experimental data reported in patent publication US8609708B2 (Human BioMolecular Research Institute, priority 2003, dated 2013).
Where two headings read alike, the source gives them in different places.

Experiments:
CYP2A13 = CYP2A13 (Homo sapiens (Human), UniProt Q16696); experiment: Inhibition of human CYP2A13; settings: for inhibition at 1 µM: human
human CYP2A6 [1] = biological target: T1, human CYP2A6 (Homo sapiens (Human), UniProt P11509); experiment: CYP2A6 mediated coumarin 7-hydroxylation inhibition
mouse CYP2A5 = mouse CYP2A5 (Mus musculus (Mouse), UniProt P20852); experiment: Inhibition of mouse CYP2A5; assay type: biochemical; settings: read-out: IC50 mCYP2A5
[2] = biological target: CYP2C19 relative to CYP2A6 (Homo sapiens (Human), UniProt P33261); experiment: CYP2C19 Vivid blue substrate O-dealkylation inhibition; assay type: biochemical; settings: human
[3] = biological target: CYP2D6 relative to CYP2A6 (Homo sapiens (Human), UniProt P10635); experiment: CYP2D6 Vivid blue substrate O-dealkylation inhibition; assay type: biochemical; settings: human, recombinant CYP2D6 BACULOSOMES, pH 8, probe Vivid blue substrate (10 μM), O-dealkylation
[4] = biological target: CYP3A4 relative to CYP2A6 (Homo sapiens (Human), UniProt P08684); experiment: in vitro; settings: human, pH 7.5
Method: (§1) To gain insight into the selectivity of the synthetic compounds, nicotine, nicotine related alkaloids and nicotine metabolites for inhibition of other CYPs, we examined the major CYP present in human liver (i.e., CYP 3A4). […] A typical incubation mixture ([…] ), 0.5 mM NADP^+, 2.0 mM G6P, 1 U of G6P dehydrogenase, […] inhibitor was added last as to minimize interaction with the protein. After mixing on ice, the reaction was initiated by the addition of substrate and incubated at 37° C. with shaking in air. Organic extracts were injected onto a Hitachi L-7100 system equipped with a Hitachi L-7400 UV detector. Separations were done with an Altex Ultrasphere ODS (4.6 mm×250 mm, 5 μm) column. The analytes were eluted with an isocratic solvent system consisting of water/acetonitrile/methanol (30:10:60, v/v/v) at a flow rate of 1.0 mL/min. […] Quantification of substrate and metabolite was determined from peak areas of the chromatogram and comparison with standard curves. IC50 values were determined as described below.
(§2) To measure CYP3A4 activity, testosterone 6-hydroxylation was determined.

CYP3A4 = CYP3A4 (Homo sapiens (Human), UniProt P08684); experiment: in vitro
Method: as §1, §2

[5] = Mouse liver microsome stability assay; settings: mouse liver microsomes; for half-life at 40 μM: mouse, pH 7.4; for MLM t1/2: 40 μM test compound
Method: The residue was reconstituted in methanol (200 μL), centrifuged at 13,000 rpm for 5 min and the supernatant was analyzed by high-performance liquid chromatography with an Axxi-chrom (straight-phase) silica column (4.6 mm×250 mm, 5 μm) or with a Supelco (reverse-phase) HS F5 pentafluorophenyl column (4.6 mm×250 mm, 5 μm).

[6] = biological target: CYP2C9 relative to CYP2A6 (Homo sapiens (Human), UniProt P11712); experiment: CYP2C9 Vivid blue substrate O-dealkylation inhibition; assay type: biochemical; settings: human
[7] = biological target: CYP2B6 relative to CYP2A6 (Homo sapiens (Human), UniProt P20813); experiment: CYP2B6 Vivid blue substrate O-dealkylation inhibition; assay type: biochemical; settings: human
[8] = biological target: CYP2E1 relative to CYP2A6 (Homo sapiens (Human), UniProt P05181); experiment: CYP2E1 Vivid blue substrate O-dealkylation inhibition; assay type: biochemical; settings: human
P450 2A6dH [9] = biological target: T2, P450 2A6dH (Homo sapiens (Human), UniProt P11509, INS494HHHH)
Method: (§3) Subsequently, test compound (in 100% ethanol, 10 μM) was added to both the cuvettes. The maximal ethanol concentration used was 2%. The difference spectra were obtained after the system reached equilibrium (3 min). All spectra were recorded at 25° C.

human CYP2A6 [10] = biological target: T1, human CYP2A6
[11] = Human liver microsome stability assay; settings: human liver microsomes; for half-life at 40 μM: human, pH 7.4
CYP2C19 = CYP2C19 (Homo sapiens (Human), UniProt P33261); experiment: CYP2C19 Vivid blue substrate O-dealkylation inhibition; assay type: biochemical
CYP2D6 = CYP2D6 (Homo sapiens (Human), UniProt P10635); experiment: CYP2D6 Vivid blue substrate O-dealkylation inhibition; assay type: biochemical
CYP2C9 = CYP2C9 (Homo sapiens (Human), UniProt P11712); experiment: CYP2C9 Vivid blue substrate O-dealkylation inhibition; assay type: biochemical
CYP2B6 = CYP2B6 (Homo sapiens (Human), UniProt P20813); experiment: CYP2B6 Vivid blue substrate O-dealkylation inhibition; assay type: biochemical
CYP2E1 = CYP2E1 (Homo sapiens (Human), UniProt P05181); experiment: CYP2E1 Vivid blue substrate O-dealkylation inhibition; assay type: biochemical
P450 2A6dH [12] = biological target: T2, P450 2A6dH; experiment: Difference spectra of test compounds with N-terminal truncated CYP2A6; settings: for λmax / λmin: difference spectrum; for binding type: difference spectrum with truncated CYP2A6
Method: as §3

[13] = recombinant CYP2C19 BACULOSOMES, pH 8, probe Vivid blue substrate (10 μM), O-dealkylation, read-out: 2C19/2A6 selectivity ratio (IC50 CYPX/IC50 CYP2A6)
[14] = read-out: 2D6/2A6 selectivity ratio (IC50 CYPX/IC50 CYP2A6)
[15] = recombinant CYP2C9 BACULOSOMES, pH 8, probe Vivid blue substrate (10 μM), O-dealkylation, read-out: 2C9/2A6 selectivity ratio (IC50 CYPX/IC50 CYP2A6)
[16] = Table 4, unit inferred, read-out: 2C19 IC50 ± SD
[17] = Table 4, unit inferred, read-out: 2D6 IC50 ± SD
[18] = Table 4, unit inferred, read-out: 2C9 IC50 ± SD
[19] = Table 4, unit inferred, read-out: 2B6 IC50 ± SD
[20] = Table 4, unit inferred, read-out: 2E1 IC50 ± SD
[21] = read-out: 2A6 IC50 ± SD, Table 4, unit not given (same data in Table 1 in μM)
[22] = recombinant CYP2B6 BACULOSOMES, pH 8, probe Vivid blue substrate (5 μM), O-dealkylation, read-out: 2B6/2A6 selectivity ratio (IC50 CYPX/IC50 CYP2A6)
[23] = recombinant CYP2E1 BACULOSOMES, pH 8, probe Vivid blue substrate (10 μM), O-dealkylation, read-out: 2E1/2A6 selectivity ratio (IC50 CYPX/IC50 CYP2A6)

Chain of CYP2A13 (Q16696 whole entry): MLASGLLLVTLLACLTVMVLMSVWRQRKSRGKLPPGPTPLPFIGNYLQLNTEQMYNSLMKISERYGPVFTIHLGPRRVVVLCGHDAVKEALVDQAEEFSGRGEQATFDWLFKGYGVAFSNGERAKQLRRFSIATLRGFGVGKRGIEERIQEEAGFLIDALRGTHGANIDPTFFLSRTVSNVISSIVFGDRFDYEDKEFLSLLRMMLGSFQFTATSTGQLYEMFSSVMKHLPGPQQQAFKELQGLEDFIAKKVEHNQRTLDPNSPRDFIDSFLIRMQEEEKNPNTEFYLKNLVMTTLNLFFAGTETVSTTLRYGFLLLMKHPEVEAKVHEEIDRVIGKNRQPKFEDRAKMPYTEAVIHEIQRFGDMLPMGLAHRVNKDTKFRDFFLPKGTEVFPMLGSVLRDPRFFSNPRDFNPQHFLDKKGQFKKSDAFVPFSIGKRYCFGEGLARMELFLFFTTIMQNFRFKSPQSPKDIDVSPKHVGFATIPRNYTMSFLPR
Chain of mouse CYP2A5 (P20852 whole entry): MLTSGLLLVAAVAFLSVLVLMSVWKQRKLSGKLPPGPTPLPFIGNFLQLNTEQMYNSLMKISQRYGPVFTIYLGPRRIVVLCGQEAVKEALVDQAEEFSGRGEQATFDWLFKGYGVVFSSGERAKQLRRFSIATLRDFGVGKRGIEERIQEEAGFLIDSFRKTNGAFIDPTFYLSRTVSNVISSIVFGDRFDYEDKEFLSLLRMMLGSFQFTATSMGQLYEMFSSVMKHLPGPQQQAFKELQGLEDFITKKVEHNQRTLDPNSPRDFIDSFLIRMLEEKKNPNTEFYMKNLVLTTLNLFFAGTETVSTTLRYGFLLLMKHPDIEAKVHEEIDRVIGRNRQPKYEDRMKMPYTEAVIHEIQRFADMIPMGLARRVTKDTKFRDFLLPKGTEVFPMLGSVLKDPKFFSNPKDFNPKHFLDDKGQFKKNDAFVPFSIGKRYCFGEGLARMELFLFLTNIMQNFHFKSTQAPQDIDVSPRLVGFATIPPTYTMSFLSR
Chain of CYP2D6 (P10635 whole entry): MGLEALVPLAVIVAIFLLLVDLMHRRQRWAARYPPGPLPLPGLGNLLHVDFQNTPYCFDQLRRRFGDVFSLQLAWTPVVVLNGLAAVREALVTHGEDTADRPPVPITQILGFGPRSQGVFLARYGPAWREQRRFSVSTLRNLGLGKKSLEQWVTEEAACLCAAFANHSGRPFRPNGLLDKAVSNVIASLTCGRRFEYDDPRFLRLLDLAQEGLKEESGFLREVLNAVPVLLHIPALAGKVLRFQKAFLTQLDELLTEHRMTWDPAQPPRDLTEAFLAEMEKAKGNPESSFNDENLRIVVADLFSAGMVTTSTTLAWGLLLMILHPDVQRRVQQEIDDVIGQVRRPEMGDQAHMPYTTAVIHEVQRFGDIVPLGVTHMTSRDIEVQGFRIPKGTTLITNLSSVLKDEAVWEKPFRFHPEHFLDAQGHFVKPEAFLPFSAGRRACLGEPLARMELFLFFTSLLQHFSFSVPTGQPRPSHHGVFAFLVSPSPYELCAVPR
Chain of CYP2D6 relative to CYP2A6 (P10635 whole entry): as above
Chain of CYP2C9 relative to CYP2A6 (P11712 whole entry): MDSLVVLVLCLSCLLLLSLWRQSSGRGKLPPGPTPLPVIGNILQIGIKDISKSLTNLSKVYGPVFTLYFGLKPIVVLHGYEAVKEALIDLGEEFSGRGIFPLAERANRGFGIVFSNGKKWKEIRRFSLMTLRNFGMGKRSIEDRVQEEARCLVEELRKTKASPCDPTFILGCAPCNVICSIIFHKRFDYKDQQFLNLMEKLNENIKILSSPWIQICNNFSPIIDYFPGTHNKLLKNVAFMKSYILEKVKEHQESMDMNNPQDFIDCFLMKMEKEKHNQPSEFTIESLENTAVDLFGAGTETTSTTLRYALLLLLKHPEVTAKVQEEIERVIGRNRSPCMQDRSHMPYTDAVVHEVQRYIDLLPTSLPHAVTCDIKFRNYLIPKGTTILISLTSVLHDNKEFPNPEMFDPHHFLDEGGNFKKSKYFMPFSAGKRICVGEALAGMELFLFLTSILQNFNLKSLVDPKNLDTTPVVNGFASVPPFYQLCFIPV
Chain of CYP2C9 (P11712 whole entry): as above
Chain of CYP3A4 relative to CYP2A6 (P08684 whole entry): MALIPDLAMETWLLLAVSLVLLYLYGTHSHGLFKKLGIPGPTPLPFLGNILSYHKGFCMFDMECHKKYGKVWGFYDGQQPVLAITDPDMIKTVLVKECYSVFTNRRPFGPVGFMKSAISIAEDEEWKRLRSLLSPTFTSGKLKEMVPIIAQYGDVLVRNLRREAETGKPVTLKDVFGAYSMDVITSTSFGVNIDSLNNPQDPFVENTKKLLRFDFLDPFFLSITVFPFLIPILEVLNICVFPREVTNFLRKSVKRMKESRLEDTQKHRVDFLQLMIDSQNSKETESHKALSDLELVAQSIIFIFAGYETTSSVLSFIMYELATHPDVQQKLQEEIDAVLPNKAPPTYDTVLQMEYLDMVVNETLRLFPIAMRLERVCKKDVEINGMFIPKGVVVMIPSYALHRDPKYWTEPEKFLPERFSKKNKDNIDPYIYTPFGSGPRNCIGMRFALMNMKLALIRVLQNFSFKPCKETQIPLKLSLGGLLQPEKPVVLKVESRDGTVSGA
Chain of CYP3A4 (P08684 whole entry): as above
Chain of CYP2E1 (P05181 whole entry, the tested form may be a part): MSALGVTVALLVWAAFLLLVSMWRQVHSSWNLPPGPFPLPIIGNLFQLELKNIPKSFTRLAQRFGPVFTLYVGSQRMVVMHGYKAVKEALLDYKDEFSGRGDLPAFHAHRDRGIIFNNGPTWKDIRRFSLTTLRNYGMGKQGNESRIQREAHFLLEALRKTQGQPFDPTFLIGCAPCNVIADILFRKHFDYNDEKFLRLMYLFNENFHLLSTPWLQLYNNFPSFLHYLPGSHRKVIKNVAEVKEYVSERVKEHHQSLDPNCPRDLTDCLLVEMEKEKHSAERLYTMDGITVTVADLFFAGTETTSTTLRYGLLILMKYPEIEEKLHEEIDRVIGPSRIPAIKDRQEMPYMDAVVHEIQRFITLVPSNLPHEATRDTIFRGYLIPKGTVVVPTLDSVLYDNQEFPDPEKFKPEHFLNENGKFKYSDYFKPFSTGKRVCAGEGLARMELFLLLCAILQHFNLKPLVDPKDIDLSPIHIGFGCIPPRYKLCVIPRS
Chain of CYP2E1 relative to CYP2A6 (P05181 whole entry): as the sequence (P05181 whole entry, the tested form may be a part) above
T2 sequence (P11509 other isoform, or with tags, fused parts or gaps 1-28 replaced by MAKKTS/ins HHHH behind 494): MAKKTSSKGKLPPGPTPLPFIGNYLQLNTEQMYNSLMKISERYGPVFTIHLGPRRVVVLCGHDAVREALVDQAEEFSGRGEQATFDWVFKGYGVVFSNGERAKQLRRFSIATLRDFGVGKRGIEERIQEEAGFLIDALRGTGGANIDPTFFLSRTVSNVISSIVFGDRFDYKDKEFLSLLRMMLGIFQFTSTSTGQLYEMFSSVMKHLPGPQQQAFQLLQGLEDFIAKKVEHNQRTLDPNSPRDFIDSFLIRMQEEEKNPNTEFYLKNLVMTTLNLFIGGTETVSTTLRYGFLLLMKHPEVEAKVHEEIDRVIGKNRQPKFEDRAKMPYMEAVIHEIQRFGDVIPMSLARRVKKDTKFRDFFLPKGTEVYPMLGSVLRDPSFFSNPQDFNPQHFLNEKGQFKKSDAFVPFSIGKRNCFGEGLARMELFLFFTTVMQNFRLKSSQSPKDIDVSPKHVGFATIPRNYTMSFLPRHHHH
Chain of CYP2C19 relative to CYP2A6 (P33261 whole entry): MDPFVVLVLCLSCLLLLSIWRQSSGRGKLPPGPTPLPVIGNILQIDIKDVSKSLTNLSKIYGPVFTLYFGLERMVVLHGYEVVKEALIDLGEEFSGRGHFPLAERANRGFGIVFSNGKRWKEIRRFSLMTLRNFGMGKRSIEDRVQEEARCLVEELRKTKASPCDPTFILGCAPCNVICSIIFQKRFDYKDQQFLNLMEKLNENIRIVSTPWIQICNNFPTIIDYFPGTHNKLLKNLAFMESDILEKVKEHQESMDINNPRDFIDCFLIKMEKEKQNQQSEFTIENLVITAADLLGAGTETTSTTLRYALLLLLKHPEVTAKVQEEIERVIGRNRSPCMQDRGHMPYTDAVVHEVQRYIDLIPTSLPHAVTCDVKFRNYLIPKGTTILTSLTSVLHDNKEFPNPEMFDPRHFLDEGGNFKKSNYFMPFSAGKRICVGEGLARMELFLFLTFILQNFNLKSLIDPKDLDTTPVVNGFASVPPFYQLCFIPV

CNCc1ccc(-c2cccnc2)s1 [TD-IV-073 30]
inhibition at 1 µM (CYP2A13): 17% | IC50 (human CYP2A6 [1]; read-out: CYP2A6 IC50, coumarin 7-hydroxylation): 1.1 ± 0.13 µM | IC50 (mouse CYP2A5): 0.9 µM

Cn1cnc(-c2cccnc2)c1 [Compound 5]
selectivity ratio at 40 min [2, 13]: 163 | selectivity ratio at 40 min [3, 14]: 272 | selectivity ratio at 30 min [4]: 349 | IC50 (CYP3A4): 262 ± 63 µM | half-life at 40 μM [5]: 481 min | selectivity ratio at 40 min [6, 15]: 106 | selectivity ratio at 40 min ([7]; pH 8): 195 | selectivity ratio at 40 min ([8]; pH 8): 5 | binding type (P450 2A6dH [9]): Type II | λmax (P450 2A6dH [9]): 429 nm | λmin (P450 2A6dH [9]): 409 nm | IC50 (human CYP2A6 [10]): 0.75 ± 0.1 µM | IC50 (human CYP2A6 [10]; human, pH 7.5): 0.748 ± 0.1 µM

Cc1ccsc1-c1cccnc1 [Compound 4]
half-life at 40 μM [5]: 41 min | half-life at 40 μM [11]: 32 min

Cc1cscc1-c1cccnc1 [TD-I-103]
IC50 (mouse CYP2A5): 0.75 µM | IC50 (human CYP2A6 [10]; human, pH 7.5): 1.85 ± 0.5 µM

CNCc1ccc(-c2cccnc2)s1 [Compound 1b]
IC50 (CYP2C19; [16]): 59.8 ± 6.5 µM | IC50 (CYP2D6; [17]): 113 ± 19 µM | IC50 (CYP3A4): > 400 µM | MLM t1/2 [5]: Stable^a | IC50 (CYP2C9; [18]): 67.7 ± 3.7 µM | IC50 (CYP2B6; [19]): > 400 µM | half-life at 40 μM [11]: 96 min | IC50 (CYP2E1; [20]): > 400 µM | IC50 (human CYP2A6 [1]; [21]): 1.1 ± 0.13 µM | λmax (P450 2A6dH [12]): 430 nm | λmin (P450 2A6dH [12]): 410 nm | binding type (P450 2A6dH [12]): Type II

NCc1ccc(-c2cccnc2)o1 [Compound 2a]
IC50 (CYP2C19; [16]): 22 ± 1.6 µM | 2D6/2A6 selectivity ratio (IC50 CYPX/IC50 CYP2A6) (CYP2D6): 42 | IC50 (CYP2D6; [17]): 11.3 ± 2.6 µM | IC50 (CYP3A4): 47.1 ± 18.1 µM | half-life at 40 μM [5]: 37 min | IC50 (CYP2C9; [18]): 11.7 ± 2.2 µM | 2B6/2A6 selectivity ratio (IC50 CYPX/IC50 CYP2A6) (CYP2B6): 707 | IC50 (CYP2B6; [19]): 191 ± 24 µM | half-life at 40 μM [11]: 37 min | 2E1/2A6 selectivity ratio (IC50 CYPX/IC50 CYP2A6) (CYP2E1): 637 | IC50 (CYP2E1; [20]): 172 ± 52 µM | binding type (P450 2A6dH [9]): Type II | λmax (P450 2A6dH [9]): 428 nm | λmin (P450 2A6dH [9]): 409 nm | IC50 (human CYP2A6 [10]): 0.27 ± 0.02 µM

Cc1ccsc1-c1cccnc1 [TD-II-025]
IC50 (CYP2A13): ~1 µM | inhibition at 1 µM (CYP2A13): 51% | IC50 (mouse CYP2A5): 0.3 µM

CNCc1ccc(-c2cccnc2)o1 [Compound 2b]
selectivity ratio at 40 min [2, 13]: 19 | IC50 (CYP2C19; [16]): 30.6 ± 4.1 µM | selectivity ratio at 40 min [3, 14]: 57 | IC50 (CYP2D6; [17]): 90.6 ± 7.8 µM | selectivity ratio at 30 min [4]: > 250 | IC50 (CYP3A4): > 400 µM | MLM t1/2 [5]: Stable^a | IC50 (CYP2C9; [18]): 76.1 ± 9.1 µM | selectivity ratio at 40 min [6, 15]: 48 | selectivity ratio at 40 min [7, 22]: 224 | IC50 (CYP2B6; [19]): 358 ± 22 µM | half-life at 40 μM [11]: 66 min | IC50 (CYP2E1; [20]): > 400 µM | selectivity ratio at 40 min [8, 23]: > 250 | IC50 (human CYP2A6 [1]; [21]): 1.6 ± 0.34 µM | λmax (P450 2A6dH [12]): 431 nm | λmin (P450 2A6dH [12]): 411 nm | binding type (P450 2A6dH [12]): Type II

CN(C)Cc1ccc(-c2cccnc2)s1 [Compound 1c]
selectivity ratio at 40 min [2, 13]: 0.8 | IC50 (CYP2C19; [16]): 106 ± 18 µM | selectivity ratio at 40 min [3, 14]: 0.2 | IC50 (CYP2D6; [17]): 28.7 ± 4.1 µM | selectivity ratio at 30 min [4]: 1.6 | IC50 (CYP3A4): 219 ± 23 µM | half-life at 40 μM [5]: 343 min | IC50 (CYP2C9; [18]): 206 ± 23 µM | selectivity ratio at 40 min [6, 15]: 1.5 | selectivity ratio at 40 min [7, 22]: > 3 | IC50 (CYP2B6; [19]): > 400 µM | HLM t1/2 ([11]; 40 μM test compound): Stable^a | IC50 (CYP2E1; [20]): > 400 µM | selectivity ratio at 40 min [8, 23]: > 3 | IC50 (human CYP2A6 [1]; [21]): 133 ± 21 µM | λmax (P450 2A6dH [12]): 428 nm | λmin (P450 2A6dH [12]): 411 nm | binding type (P450 2A6dH [12]): Type II

NCc1ccc(-c2cccnc2)s1 [TD-II-039]
IC50 (mouse CYP2A5): 0.5 µM

NCc1ccc(-c2cccnc2)o1 [Compound 39a, (5-(Pyridin-3-yl)furan-2-yl)methanamine]
selectivity ratio at 40 min ([2]; pH 8, 2C19/2A6 selectivity ratio (IC50 CYPX/IC50 CYP2A6)): 82 | selectivity ratio at 40 min ([2]; pH 8, human CYP2C19 versus human CYP2A6, read-out: Selectivity ratio (IC50 CYPX/IC50 CYP2A6) 2C19/2A6): 82 | IC50 (CYP2C19; insect cell microsomes expressing CYP2C19, 0.2M potassium phosphate buffer, mean of at least 3 determinations ± SD, read-out: IC50 ± SD 2C19): 22 ± 1.6 µM | selectivity ratio at 40 min ([3]; human CYP2D6 versus human CYP2A6, read-out: Selectivity ratio (IC50 CYPX/IC50 CYP2A6) 2D6/2A6): 41 | selectivity ratio at 40 min [3, 14]: 41 | IC50 (CYP2D6; insect cell microsomes expressing CYP2D6, 0.2M potassium phosphate buffer, mean of at least 3 determinations ± SD, read-out: IC50 ± SD 2D6): 11.3 ± 2.6 µM | selectivity ratio at 30 min [4]: 174 | IC50 (CYP2C9; insect cell microsomes expressing CYP2C9, 0.2M potassium phosphate buffer, mean of at least 3 determinations ± SD, read-out: IC50 ± SD 2C9): 11.7 ± 2.2 µM | selectivity ratio at 40 min ([6]; pH 8, 2C9/2A6 selectivity ratio (IC50 CYPX/IC50 CYP2A6)): 41 | selectivity ratio at 40 min ([6]; pH 8, human CYP2C9 versus human CYP2A6, read-out: Selectivity ratio (IC50 CYPX/IC50 CYP2A6) 2C9/2A6): 41 | selectivity ratio at 40 min [7, 22]: 707 | IC50 (CYP2B6; insect cell microsomes expressing CYP2B6, 0.2M potassium phosphate buffer, mean of at least 3 determinations ± SD, read-out: IC50 ± SD 2B6): 191 ± 24 µM | IC50 (CYP2E1; insect cell microsomes expressing CYP2E1, 0.2M potassium phosphate buffer, mean of at least 3 determinations ± SD, read-out: IC50 ± SD 2E1): 172 ± 52 µM | selectivity ratio at 40 min [8, 23]: 637 | binding type (P450 2A6dH [9]): type 2 | IC50 (human CYP2A6 [10]; human, pH 7.5): 0.27 ± 0.02 µM | Ki (human CYP2A6 [10]; human, pH 7.5): 0.04 ± 0.004 µM
